Here are results for 36 compounds from patent US20250129028A1, “COMPOUNDS AND METHODS FOR YAP/TEAD MODULATION AND INDICATIONS THEREFOR” (Opna Bio SA, priority 2022, published 2025).

The subject of the assay is TEAD-dependent transcription. Nature of the assay: TEAD-dependent transcription cell-based reporter assay (MSTO-211H+12XGTIIC luciferase). Also noted: species or system human. The note with it: Homo sapiens; MSTO-211H+12XGTIIC cell line, luciferase signal normalized to cell viability, 24 hours compound incubation; read-out: MSTO-211H GMean IC50 (uM) Cell Assay Reporter Cell Variant: TEAD. The procedure, abridged: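 MSTO-211H mesothelioma cells stably carrying a 12xGTIIC TEAD-response-element luciferase reporter, treated with serial compound dilutions for 24 h at 37 °C. Luminescence normalized to CellTiter-Fluor viability signal; % inhibition versus DMSO and 20 μM K-975 controls, IC50 by nonlinear regression.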
Take `O=C1NCCC1CC(=O)N1CCc2ccc(Oc3ccc(C(F)(F)F)c(F)c3)cc2C1` (stereo not drawn) [P-0142, 3-(2-(7-(3-fluoro-4-(trifluoromethyl)phen-oxy)-3,4-dihydroisoquin-olin-2(1H)-yl)-2-oxoeth-yl)pyrrolidin-2-one]: the IC50 lay in the range of 0.001 to 10 µM.

In the case of `CCCCNC(=O)N1CCc2ccc(Oc3ccc(C(F)(F)F)cc3)cc2C1` [P-0032, N-butyl-7-(4-(trifluoro-methyl)phenoxy)-3,4-dihydroisoquinoline-2(1H)-carboxamide], the IC50 was in the range of 0.001 to 10 µM. To `C=CC(=O)N1CC(C(=O)N2CCc3ccc(Oc4ccc(C(F)(F)F)c(F)c4)cc3C2)C1` [P-0118, 1-(3-(7-(3-fluoro-4-(trifluoromethyl)phen-oxy)-1,2,3,4-tetrahydro-isoquinoline-2-carbon-yl)azetidin-1-yl)prop-2-en-1-one] belongs 0.001 to 10 µM. On to `C[C@H](NC(=O)N1CCc2c(cccc2Oc2ccc(C(F)(F)F)cc2)C1)C1CC1` [P-0265, (S)-N-(1-cyclopropyl-ethyl)-5-(4-(trifluoro-methyl)phenoxy)-3,4-dihydroisoquinoline-2(1H)-carboxamide], for which the IC50 was in the range of 0.001 to 10 µM. Next, `CS(=O)(=O)CC(=O)N1CCc2ccc(Oc3ccc(C(F)(F)F)cc3)cc2C1` [P-0078, 2-(methylsulfonyl)-1-(7-(4-(trifluoromethyl)phen-oxy)-3,4-dihydroisoquin-olin-2(1H)-yl)ethan-1-one]: 0.001 to 10 µM; `O=C1CC(C(=O)N2CCc3ccc(Oc4ccc(C(F)(F)F)cc4)cc3C2)CN1` (stereo not drawn) [P-0088, 4-(7-(4-(trifluorometh-yl)phenoxy)-1,2,3,4-tetrahydroisoquinoline-2-carbonyl)pyrrolidin-2-one]: 0.001 to 10 µM. As for `O=C(CC1CCOC1)N1CCc2ccc(Oc3ccc(C(F)(F)F)cc3)cc2C1` (stereo not drawn) [P-0086, 2-(tetrahydrofuran-3-yl)-1-(7-(4-(trifluorometh-yl)phenoxy)-3,4-dihydro-isoquinolin-2(1H)-yl)-ethan-1-one], the IC50 lay in the range of 0.001 to 10 µM. To `O=C(C1CCNC1)N1CCc2ccc(Oc3ccc(C(F)(F)F)c(F)c3)cc2C1` (stereo not drawn) [P-0145, (7-(3-fluoro-4-(trifluoro-methyl)phenoxy)-3,4-dihydroisoquinolin-2(1H)-yl)(pyrrolidin-3-yl)methanone] belongs 0.001 to 10 µM. Next, `NS(=O)(=O)c1ccnc(N2CCc3ccc(Oc4ccc(C(F)(F)F)cc4)cc3C2)c1` [P-0230, 2-(7-(4-(trifluorometh-yl)phenoxy)-3,4-dihydro-isoquinolin-2(1H)-yl)-pyridine-4-sulfonamide]: 0.001 to 10 µM.

In the case of `O=C(CCS(=O)(=O)C(F)(F)F)N1CCc2ccc(Oc3ccc(C(F)(F)F)c(F)c3)cc2C1` [P-0141, 1-(7-(3-fluoro-4-(trifluoromethyl)phen-oxy)-3,4-dihydroiso-quinolin-2(1H)-yl)-3-((trifluoromethyl)sulfon-yl)propan-1-one], the IC50 was 0.001 to 10 µM. To `O=S(=O)(C1CC1)N1CCc2ccc(Oc3ccc(C(F)(F)F)cc3)cc2C1` [P-0006, 2-(cyclopropylsulfonyl)-7-(4-(trifluoromethyl)-phenoxy)-1,2,3,4-tetra-hydroisoquinoline] belongs 0.001 to 10 µM; to `CN1CC(C(=O)N2CCc3ccc(Oc4ccc(C(F)(F)F)c(F)c4)cc3C2)C1` [P-0097, (7-(3-fluoro-4-(trifluoro-methyl)phenoxy)-3,4-dihydroisoquinolin-2(1H)-yl)(1-methylazet-idin-3-yl)methanone], 0.001 to 10 µM.

Regarding `NC(=O)NCCC(=O)N1CCc2ccc(Oc3ccc(C(F)(F)F)cc3)cc2C1` [P-0096, 1-(3-oxo-3-(7-(4-(trifluoromethyl)phen-oxy)-3,4-dihydroisoquin-olin-2(1H)-yl)propyl)urea], the half-maximal inhibitory concentration (IC50) lay within 0.001 to 10 µM.

Consider `C=CC(=O)N1CCC(C2c3cc(Oc4ccc(C(F)(F)F)cc4)ccc3CCN2C(=O)CCS(C)(=O)=O)CC1` (stereo not drawn) [P-0223, 1-(4-(2-(3-(methylsulfon-yl)propanoyl)-7-(4-(trifluoromethyl)phen-oxy)-1,2,3,4-tetrahydro-isoquinolin-1-yl)piper-idin-1-yl)prop-2-en-1-one], for which the 50% inhibitory concentration (IC50) was 0.001 to 10 µM. To `CNS(=O)(=O)NCC(=O)N1CCc2ccc(Oc3ccc(C(F)(F)F)cc3)cc2C1` [P-0128, N-methyl-N′-(2-(7-(4-(trifluoromethyl)phen-oxy)-3,4-dihydroisoquin-olin-2(1H)-yl)-2-oxoeth-yl)sulfamide] belongs 0.001 to 10 µM; to `CS(=O)(=O)CCC(=O)N1CCc2c(cccc2-c2ccc(C(F)(F)F)cc2)C1` [P-0271, 3-(methylsulfonyl)-1-(5-(4-(trifluoromethyl)phen-yl)-3,4-dihydroisoquin-olin-2(1H)-yl)propan-1-one], 0.001 to 10 µM.

`O=C(Nc1ccccc1)N1CCc2ccc(Oc3ccc(C(F)(F)F)cc3)cc2C1` [P-0022, N-phenyl-7-(4-(trifluoro-methyl)phenoxy)-3,4-dihydroisoquinoline-2(1H)-carboxamide]: the IC50 lay in the range of 0.001 to 10 µM. To `O=C(CCS(=O)(=O)C(F)(F)F)N1CCc2ccc(Oc3ccc(C(F)(F)F)cc3)cc2C1` [P-0061, 1-(7-(4-(trifluorometh-yl)phenoxy)-3,4-dihydro-isoquinolin-2(1H)-yl)-3-((trifluoromethyl)sulfon-yl)propan-1-one] belongs 0.001 to 10 µM; to `O=C(C1CCS(=O)(=O)C1)N1CCc2ccc(Oc3ccc(C(F)(F)F)cc3)cc2C1` (stereo not drawn) [P-0045, (1,1-dioxidotetrahydro-thiophen-3-yl)(7-(4-(trifluoromethyl)phen-oxy)-3,4-dihydroisoquin-olin-2(1H)-yl)methanone], 0.001 to 10 µM. In the case of `O=C(CC1CCCCC1)N1CCc2c(cccc2Oc2ccc(C(F)(F)F)cc2)C1` [P-0267, 2-cyclohexyl-1-(5-(4-(trifluoromethyl)phen-oxy)-3,4-dihydroisoquin-olin-2(1H)-yl)ethan-1-one], the IC50 lay in the range of 10 to 100 µM.

For the compound `CCCCS(=O)(=O)N1CCc2ccc(Oc3ccc(C(F)(F)F)cc3)cc2C1` [P-0034, 2-(butylsulfonyl)-7-(4-(trifluoromethyl)phen-oxy)-1,2,3,4-tetrahydro-isoquinoline], the IC50 lay in the range of 0.001 to 10 µM.

Regarding `O=C(CNS(=O)(=O)C(F)(F)F)N1CCc2ccc(Oc3ccc(C(F)(F)F)c(F)c3)cc2C1` [P-0114, 1,1,1-trifluoro-N-(2-(7-(3-fluoro-4-(trifluoromethyl)phenoxy)-3,4-dihydroisoquinolin-2(1H)-yl)-2-oxoethyl)methanesulfonamide], the 50% inhibitory concentration (IC50) lay within 0.001 to 10 µM. To `CC(C)(O)CC(=O)N1CCc2c(cccc2Oc2ccc(C(F)(F)F)cc2)C1` [P-0264, 3-hydroxy-3-methyl-1-(5-(4-(trifluoromethyl)-phenoxy)-3,4-dihydroiso-quinolin-2(1H)-yl)butan-1-one] belongs 0.001 to 10 µM; to `Nc1ncc(CC(=O)N2CCc3ccc(Oc4ccc(C(F)(F)F)cc4)cc3C2)s1` [P-0093, 2-(2-aminothiazol-5-yl)-1-(7-(4-(trifluoromethyl)-phenoxy)-3,4-dihydroiso-quinolin-2(1H)-yl)ethan-1-one], 0.001 to 10 µM; to `O=C(Nc1ccccc1)N1CCc2c(cccc2Oc2ccc(C(F)(F)F)cc2)C1` [P-0237, N-phenyl-5-(4-(trifluoro-methyl)phenoxy)-3,4-dihydroisoquinoline-2(1H)-carboxamide], 0.001 to 10 µM. To `CNS(=O)(=O)N1CCc2ccc(Oc3ccc(C(F)(F)F)cc3)cc2C1` [P-0012, N-methyl-7-(4-(trifluoro-methyl)phenoxy)-3,4-dihydroisoquinoline-2(1H)-sulfonamide] belongs 0.001 to 10 µM. To `NC(=O)N1CCc2ccc(Oc3ccc(C(F)(F)F)cc3)cc2C1` [P-0010, 7-(4-(trifluoromethyl)-phenoxy)-3,4-dihydroiso-quinoline-2(1H)-carbox-amide] belongs 0.001 to 10 µM.

On to `O=C1CC(C(=O)N2CCc3ccc(Oc4ccc(C(F)(F)F)cc4)cc3C2)CCN1` (stereo not drawn) [P-0130, 4-(7-(4-(trifluoromethyl)-phenoxy)-1,2,3,4-tetra-hydroisoquinoline-2-carbonyl)piperidin-2-one], for which the 50% inhibitory concentration (IC50) was 0.001 to 10 µM.

As for `CS(=O)(=O)CCC(=O)N1CCc2ccc(Oc3ccc(Cl)cc3)cc2C1` [P-0090, 1-(7-(4-chlorophenoxy)-3,4-dihydroisoquinolin-2(1H)-yl)-3-(methylsul-fonyl)propan-1-one], the IC50 is 0.001 to 10 µM. Next, `O=C(N1CCc2ccc(Oc3ccc(C(F)(F)F)cc3)cc2C1)C12CC1C2` (stereo not drawn) [P-0011, bicyclo[1.1.0]butan-1-yl(7-(4-(trifluoromethyl)-phenoxy)-3,4-dihydro-isoquinolin-2(1H)-yl)-methanone]: 0.001 to 10 µM; `CS(=O)(=O)CCC(=O)N1CCc2ccc(Oc3ccc(C(F)(F)F)cc3)cc2C1` [P-0018, 3-(methylsulfonyl)-1-(7-(4-(trifluoromethyl)phenoxy)-3,4-dihydroisoquinolin-2(1H)-yl)propan-1-one]: 0.001 to 10 µM; `NC(=O)NCC(=O)N1CCc2ccc(Oc3ccc(Cl)cc3)cc2C1` [P-0104, 1-(2-(7-(4-chlorophen-oxy)-3,4-dihydroisoquin-olin-2(1H)-yl)-2-oxoeth-yl)urea]: 0.001 to 10 µM. To `NS(=O)(=O)N1CCc2ccc(Oc3ccc(C(F)(F)F)cc3)cc2C1` [P-0001, 7-(4-(trifluoromethyl)-phenoxy)-3,4-dihydroiso-quinoline-2(1H)-sulfon-amide] belongs 0.001 to 10 µM. To `CN(C)C(=O)CN1CCc2ccc(Oc3ccc(C(F)(F)F)cc3)cc2C1` [P-0027, N,N-dimethyl-2-(7-(4-(trifluoromethyl)phen-oxy)-3,4-dihydroisoquin-olin-2(1H)-yl)acetamide] belongs 0.001 to 10 µM; to `O=C(CCS(=O)(=O)C(F)(F)F)N1CCc2ccc(Oc3ccc(Cl)cc3)cc2C1` [P-0091, 1-(7-(4-chlorophenoxy)-3,4-dihydroisoquinolin-2(1H)-yl)-3-((trifluoro-methyl)sulfonyl)propan-1-one], 0.001 to 10 µM; to `O=C(C1CC1)N1CCc2ccc(Oc3ccc(C(F)(F)F)cc3)cc2C1` [P-0015, cyclopropyl(7-(4-(trifluoromethyl)phen-oxy)-3,4-dihydroiso-quinolin-2(1H)-yl)-methanone], 0.001 to 10 µM.
